Source: patent publication US6374907B1, “Hydrofluoroether as a heat-transfer fluid” (3M Innovative Properties Company, priority 1999, dated 2002)

Key:
Format in all cases: physicochemical
[1] = Thermal conductivity, transient hot-wire cell (ASTM D 2717-86); conditions: value used in place of n-C3F7CF(OC2H5)CF(CF3)2
Protocol: The thermal conductivity of n-C3F7CF(OC2H5)CF(CF3)2 was not measured. Instead, experimentally-determined values for the hydrofluoroether C4F9OC2H5 were used. These values were determined using a transient, hot-wire thermal conductivity cell over the temperature range of −50° C. to +50° C., according to ASTM D 2717-86. A platinum wire was used in the measurements. […] The thermal conductivity at 25° C. was 0.066 W/m° C.

[2] = Freezing or pour point measurement; conditions: 1 ml sample cooled with liquid nitrogen; for pour point: transparent glassy solid
Protocol: Freezing or pour points were measured for 3 related hydrofluoroether samples:
The freeze and or pour points were measured by cooling a 1 ml sample contained in a double walled glass tube. The outer tube was sealed at both ends and had side ports for the addition of nitrogen gas. The inner tube was sealed at one end. The annular space between the tubes was purged with dry nitrogen and sealed. The sample was introduced into the inner tube and sealed with a septum. The temperature of the sample contained in the inner tube was monitored with an Omega Model DP-41 (available from Omega Engineering, Inc., Stamford, Conn.) resistance thermal device inserted into the fluid. The apparatus was lowered into the dewar flask of liquid nitrogen.
If the material froze to a white solid, a freezing point is reported. If instead the material became a transparent glassy solid, a pour point is reported.
The resistance thermal device was not calibrated at temperatures less than −100° C.

[3] = Physical properties of the fluids (boiling point, gel temperature, pour point); conditions: for boiling point: ambient / atmospheric pressure
Text: The pumping power calculation was made for various fluorinated fluids and is presented in TABLE 5, along with various physical properties of the fluids.

[4] = Specific heat by differential scanning calorimetry (ASTM E 1269-90)
Protocol: The specific heat of n-C3F7CF(OC2H5)CF(CF3)2 was measured by differential scanning calorimetry according to ASTME 1269-90 over a temperature range of −50° C. to 50° C.

[5] = Distillation curve, head temperature vs. percent boiled; conditions: until over 95% of the fluid had boiled over
Protocol: H-GALDEN™ ZT-130 fluid (199 grams) was distilled from a 250 mL boiling flask using a 12 inch (30 cm) downward slanting shell-in-tube condenser into another 250 mL receiver flask. The weight of the fluid captured by the receiver was continuously monitored using an Ohaus Model TP4000D digital balance (available from Ohaus Corp., Florham Park, N.J.). The head temperature of the distillation apparatus was monitored using a type-J thermocouple. Both weight and temperature measurements were recorded using a LABVIEW SCXI automated data acquisition system (available from National Instruments Corp., Austin, Tex.) at regular intervals during the course of the distillation, which took 20.9 minutes.
The same experiment was repeated except that 211.9 g of n-C3F7CF(OC2H5)CF(CF3)2 was used in place of the H-GALDEN™ ZT-130 fluid and the distillation took place over an 11.5 minute time interval.
Thus, better temperature and viscosity control is possible when the n-C3F7CF(OC2H5)CF(CF3)2 is employed as a wide temperature range heat-transfer fluid.

[6] = Kinematic viscosity, Cannon-Fenske viscometer
Protocol: The kinematic viscosity of n-C3F7CF(OC2H5)CF(CF3)2 was measured using a Cannon-Fenske viscometer over the temperature range −80° C. to 23° C. Data were regressed using methods outlined in ASTM Standard D 341-77.

[7] = Liquid density, Anton-Parr densitometer
Protocol: The liquid density of n-C3F7CF(OC2H5)CF(CF3)2 was measured from 10° C. to 90° C. using an Anton-Parr Model DMA58 densitometer with a DMA602 external cell. Densities below this temperature were obtained by linear extrapolation of the available data.

| Compound | Gel temp [3] [°C] | Initial Boiling point [3] [°C] | boiling point [3] | pour point [2] | further results |
| --- | --- | --- | --- | --- | --- |
| C4F9OC2H5 |  |  |  |  | thermal conductivity at 25° C. [1]: 0.066 W/m° C. |
| CCOC(F)(C(F)(F)C(F)(F)F)C(F)(C(F)(F)F)C(F)(F)F (stereo not drawn) [n-C2F5CF(OC2H5)CF(CF3)2] |  |  |  |  | freeze point ([2]; froze to a white solid): −70 °C |
| FC(F)(F)C(F)(F)C(F)(F)N(C(F)(F)C(F)(F)C(F)(F)F)C(F)(F)C(F)(F)C(F)(F)F [FC-3283, perfluoro(tripropylamine)] | −50 | 130 | about 130 °C |  | pour point [3]: −50 °C |
| CCOC(F)(C(F)(F)C(F)(F)C(F)(F)F)C(F)(C(F)(F)F)C(F)(F)F (stereo not drawn) [n-C3F7CF(OC2H5)CF(CF3)2, 3-ethoxy-perfluoro(2-methylhexane)] | −100 | 128 | 128 °C | less than −100 °C | Specific Heat at 25° C. [4]: 1128 J/kg° C.; change of boiling point during distillation [5]: remained unchanged; Kinematic Viscosity at 25° C. [6]: 0.77 centistokes; Liquid Density at 25° C. [7]: 1614 kg/m^3 |
| CCOC(F)(C(F)(F)C(F)(F)C(F)(F)C(F)(F)F)C(F)(C(F)(F)F)C(F)(F)F (stereo not drawn) [n-C4F9CF(OC2H5)CF(CF3)2] |  |  |  | −83 °C |  |
